According to PMC1968247 (British Journal of Cancer, 1993):
Read-outs that look alike come from different tables or passages of the source.

What was measured:
MAC 13 tumours = assay: Anti-tumour activity against MAC 13 (tumour weight); format: in vivo, NMRI mice; details: 60 mg kg-1 ip
Protocol: (§1) Br. J. Cancer (1993), 67, 441 446 t? […] Bibby Clinical Oncology Unit, University of Bradford, West Yorkshire, BD7 JDP, UK. […] In vivo anti-tumour activity was examined against three transplantable adenocarcinomas of the mouse colon and in vivo bone marrow toxicity was assessed using a spleen colony forming unit assay. The pharmacokinetic behaviour of the drug in vivo and drug stability in vitro was analysed by gas chromatography with electron capture detection. […] Clinical responses to cytotoxic agents have been largely restricted to the haematological malignancies while the majority of human solid tumours have remained refractory to chemotherapy (Marsoni et al., 1987). […] However, their clinical usefulness has been limited by non-selective host toxicity, particularly myelosuppres- sion. The chloroethylnitrosoureas decompose spontaneously in aqueous solution to generate reactive intermediates that are capable of alkylating and carbamoylating nucleophilic targets (Cheng et al., 1972). Alkylation reactions consist of chloroethylations and hydroxyethylations of DNA (Tong et al., 1982). Chloroethylation of 06-guanine with subsequent cross-link formation is considered to be the most important cytotoxic reaction (Lown et al., 1978) while hydroxyethyla- tion reactions are thought to be responsible for their mutagenic and carcinogenic effects (Pelfrene et al., 1976; Swenson et al., 1979). […] In the search for other types of compound that would chloroethylate DNA, a series of 2-haloethylsulphonates was synthesised (Shealy et al., 1983). […] Recently, the NCI has introduced a new disease-orientated screening programme based on the assessment of the in vitro cytotoxicity of a panel of cell lines representing the common clinical forms of human cancers using a colorimetric assay (Boyd, 1989). […] One reason for this discrepancy is that the in vitro tests ignore the potential role played by the pharmacokinetic behaviour and bioavailability of a drug in determining tumour responses in vivo. […] It has been used extensively as part of the pre-clinical evaluation of new anti-cancer agents within the Screening and Pharmacology Group of the EORTC (Bibby et al., 1988b). The feasibility of performing minimal toxicity studies in conjunction with anti-tumour studies has been described (Bibby et al., 1988b). […] Correspondence: A.M. Matthew. Received 6 December 1991; and in revised form 13 October 1992. Br. J. Cancer (1993), 67, 441-446 '?" Macmillan Press Ltd., 1993 442 A.M. MATIHEW et al. ethylating agents with improved therapeutic indices. The assessment of stem cell survival has been recommended to study irreversible cytotoxic bone marrow injury (Schofield, 1986) and this can be performed readily in mice using a spleen colony forming unit assay. […] In vitro activity was assessed against a panel of established murine and human tumour cell lines while in vivo anti-tumour responses were evaluated against an ascitic tumour, MAC 15A, and two solid subcutaneous (sc) tumours, MAC 13 and MAC 26. MAC 13 is relatively nitrosourea-sensitive due to a low level of the repair enzyme 06-alkylguanine-DNA alkyltransferase while MAC 26 is relatively nitrosourea-resistant due to a high repair enzyme level (Lunn et al., 1989). In vivo bone marrow toxicity and pharmacokinetic studies and in vitro drug stability studies were performed in conjunction with the anti-tumour studies. […] Chlorozotocin was dissolved in 10% dimethylsulphoxide (DMSO)/arachis oil. Drug solutions were prepared at an appropriate concentration for the desired in vivo dose to be administered in 0.1 ml per 10 g body weight by intra- peritoneal (ip) or intravenous (iv) injection and for the desired final concentration in vitro to be achieved upon a 1 in 10 dilution. […] Chemosensitivity testing In vitro chemosensitivity was assessed using a modified micro-tetrazolium (MTT) assay (Twenty- man & Luscombe, 1987).

[1] = Maximum tolerated dose, full dose range to the point of toxicity; details: NMRI, mouse, in vivo, ip
Protocol: Br. J. Cancer (1993), 67, 441 446 t? […] Bibby Clinical Oncology Unit, University of Bradford, West Yorkshire, BD7 JDP, UK. […] In vivo anti-tumour activity was examined against three transplantable adenocarcinomas of the mouse colon and in vivo bone marrow toxicity was assessed using a spleen colony forming unit assay. The pharmacokinetic behaviour of the drug in vivo and drug stability in vitro was analysed by gas chromatography with electron capture detection. […] Clinical responses to cytotoxic agents have been largely restricted to the haematological malignancies while the majority of human solid tumours have remained refractory to chemotherapy (Marsoni et al., 1987). […] However, their clinical usefulness has been limited by non-selective host toxicity, particularly myelosuppres- sion. The chloroethylnitrosoureas decompose spontaneously in aqueous solution to generate reactive intermediates that are capable of alkylating and carbamoylating nucleophilic targets (Cheng et al., 1972). Alkylation reactions consist of chloroethylations and hydroxyethylations of DNA (Tong et al., 1982). Chloroethylation of 06-guanine with subsequent cross-link formation is considered to be the most important cytotoxic reaction (Lown et al., 1978) while hydroxyethyla- tion reactions are thought to be responsible for their mutagenic and carcinogenic effects (Pelfrene et al., 1976; Swenson et al., 1979). […] The assessment of stem cell survival has been recommended to study irreversible cytotoxic bone marrow injury (Schofield, 1986) and this can be performed readily in mice using a spleen colony forming unit assay. […] In vitro activity was assessed against a panel of established murine and human tumour cell lines while in vivo anti-tumour responses were evaluated against an ascitic tumour, MAC 15A, and two solid subcutaneous (sc) tumours, MAC 13 and MAC 26. […] Chemosensitivity testing In vitro chemosensitivity was assessed using a modified micro-tetrazolium (MTT) assay (Twenty- man & Luscombe, 1987).

bone marrow = details: 24 h
Protocol: as §1

MAC 26 tumours = details: for Tumour growth delay: MAC 26; for Survivors: MAC 26 bearers
Protocol: as §1

MAC 15A ascites tumour = assay: Anti-tumour activity against MAC 15A (median survival time); format: in vivo, NMRI mice; details: 60 mg kg-1 ip
Protocol: as §1

O=NN(CCCl)C(=O)N[C@H]1C(O)O[C@H](CO)[C@@H](O)[C@@H]1O (stereo partly drawn) [Chlorozotocin, reference compound]
% Tumour weight inhibition (MAC 13 tumours): 59.2%
MTD [1]: 60 mg/kg
Survival fraction (bone marrow; 15 mg kg-1 ip): 0.86
Survival fraction (bone marrow; 30 mg kg-1 ip): 0.80
Tumour growth delay (MAC 26 tumours; 60 mg kg-1 ip): 0 days
Tumour growth delay (MAC 26 tumours; 80 mg kg-1 ip): Toxic
Survivors (MAC 26 tumours; 60 mg kg-1 ip): 9/9
Survivors (MAC 26 tumours; 80 mg kg-1 ip): 3/9
T/C% (MAC 15A ascites tumour): 288%
